Test results as given in PMC11714206, “Massively Parallel Screening of Toll/Interleukin‐1 Receptor (TIR)‐Derived Peptides Reveals Multiple Toll‐Like Receptors (TLRs)‐Targeting Immunomodulatory Peptides” (Advanced Science, 2024).
Blank lines part the entries; values can stand above or below the sequence they belong to.

Target: T1, MAL^TIR (Homo sapiens, UniProt P58753)
T1 construct: MAL (residues 79–221); 6xHis; made in house; host or cells: E. coli BL21 (DE3)
Test: T‐Surf phage library (P8 and P3) selection against MAL^TIR, four rounds, NGS read counts
Assay type: binding
Conditions: for P8_MAL Rank (after) / P8_MAL Rank (before): P8 library; for P3_MAL Rank (after) / P3_MAL Rank (before): P3 library; for Population: 4th round of selection against MAL TIR, share of NGS reads
How it was run: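 Read counts come from NGS of phage pools enriched over four selection rounds on the plate‐coated TIR domain (5 µg mL^−1). Each round: 1 h phage binding at room temperature after 0.2% BSA blocking, Tween washes, acid elution, amplification in E. coli TG1 with M13KO7 helper.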

[1] = selection against MAL, rank after grouping
[2] = selection against MAL, rank before grouping
[3] = 4R selection against MAL, rank after grouping
[4] = 4R selection against MAL, rank before grouping
[5] = P3_MAL: rank by count after grouping
[6] = P3_MAL: rank by count before grouping
[7] = selection against MAL, rank by count after grouping
[8] = selection against MAL, rank by count before grouping
[9] = P8_MAL pool: P8 T-Surf phage library
[10] = P3_MAL pool: P3 T-Surf phage library
[11] = P8_MAL: rank by count after grouping
[12] = P8_MAL: rank by count before grouping

T1 sequence (P58753 79-221): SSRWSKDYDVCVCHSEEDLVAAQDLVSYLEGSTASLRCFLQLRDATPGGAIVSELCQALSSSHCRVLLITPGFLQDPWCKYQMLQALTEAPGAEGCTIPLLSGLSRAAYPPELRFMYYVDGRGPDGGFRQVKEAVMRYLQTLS

Sequence: FMSHLYQGLKNRGIFTF
- Rank (after) [5]: 113
- Rank (before) [6]: 201

Sequence: RRLKWKDALHQFHSWV
- Rank (after) [5]: 124
- Rank (before) [6]: 594

Sequence: YAFTGHLRRYMVQRGV
- P3_MAL Rank (after) [1]: 517
- P3_MAL Rank (before) [2]: 1370

Sequence: MSHLYQGLKNRGIFT
- Rank (after) [5]: 117
- Rank (before) [6]: 254

Sequence: KNLFHELVIKNIRTFM
- P3_MAL Rank (after) [7]: 696
- P3_MAL Rank (before) [8]: 3747

Sequence: NQWRNALSSIASRP
- P3_MAL Rank (after) [3]: 625
- P3_MAL Rank (before) [4]: 3351

Sequence: AFFWAQLKSVLGNRTM
- Population [9]: 0.00309%

Sequence: YFLHFLLYDHLRWLGIRAFL
- P8_MAL Rank (after) [1]: 572
- P8_MAL Rank (before) [2]: 1498

Sequence: KEVEGWRQALEKAGKL
- Rank (after) [5]: 118
- Rank (before) [6]: 386

Sequence: AFLWTYLSNLMHQPTF
- P8_MAL Rank (after) [1]: 483
- P8_MAL Rank (before) [2]: 1797

Sequence: PNLRTKVLNYLMRNKT
- Population [10]: 0.00526%

Sequence: LVAHAISKKMKLFATI
- Rank (after) [5]: 411
- Rank (before) [6]: 2093

Sequence: WFLLKFRTVLAHVNDV
- P8_MAL Rank (after) [1]: 511
- P8_MAL Rank (before) [2]: 1354

Sequence: AFFWERLRPVLRKPTR
- P8_MAL Rank (after) [3]: 637
- P8_MAL Rank (before) [4]: 1668

Sequence: AFLYTFMINLTHPTTF
- Rank (after) [11]: 126
- Rank (before) [12]: 1889

Sequence: KMQQWQDALYEAANLS
- P3_MAL Rank (after) [7]: 691
- P3_MAL Rank (before) [8]: 3654

Sequence: RRTFLSHLQHHFASKG
- Population [10]: 0.05%
- Rank (after) [5]: 98
- Rank (before) [6]: 98

Sequence: ALLYPFLINLTHPTHF
- P8_MAL Rank (after) [1]: 522
- P8_MAL Rank (before) [2]: 1957

Sequence: SSFREGLWRLLELNKK
- Population [10]: 0.00488%

Sequence: HPKGSYREALAEHEKR
- P3_MAL Rank (after) [1]: 503
- P3_MAL Rank (before) [2]: 2809

Sequence: PFLGHLSNALVQAGIH
- Rank (after) [11]: 132
- Rank (before) [12]: 2331

Sequence: RLLKWKEALHQFHSSL
- Rank (after) [5]: 172
- Rank (before) [6]: 2515

Sequence: LFFWEKLRQLLRRAAS
- Rank (after) [11]: 387
- Rank (before) [12]: 2124

Sequence: RWFWDKLIYALSRNTH
- Rank (after) [5]: 471
- Rank (before) [6]: 3228

Sequence: WIYERLVSRILRDTKV
- Rank (after) [11]: 163
- Rank (before) [12]: 1430

Sequence: YFLHSLLISLTDPAYI
- Rank (after) [11]: 452
- Rank (before) [12]: 1510

Sequence: YAFTGHLHRYLVQRGI
- Population [10]: 0.00338%

Sequence: SEFIQKMILWMNTKVV
- P8_MAL Rank (after) [7]: 689
- P8_MAL Rank (before) [8]: 2438

Sequence: AYAYSRLVLLPLLELS
- Rank (after) [11]: 472
- Rank (before) [12]: 1943

Sequence: LKVKLASGAGKSGQT
- P3_MAL Rank (after) [3]: 619
- P3_MAL Rank (before) [4]: 2301

Sequence: LKVESWRQALEKAGT
- P3_MAL Rank (after) [1]: 549
- P3_MAL Rank (before) [2]: 2274

Sequence: DWFVSKLSQQILQREK
- P3_MAL Rank (after) [7]: 729
- P3_MAL Rank (before) [8]: 1862

Sequence: NQWRNALTAVANLSGW
- Population [10]: 0.00451%

Continued, values first:

- P8_MAL Rank (after) [1]: 548
- P8_MAL Rank (before) [2]: 2000
Sequence: DTILKKGESIAPELLG

- P8_MAL Rank (after) [3]: 638
- P8_MAL Rank (before) [4]: 1425
Sequence: WLYERLVGLILRYTKV

- P8_MAL Rank (after) [3]: 672
- P8_MAL Rank (before) [4]: 2302
Sequence: RFYEAQLILVLRNTKM

- P3_MAL Rank (after) [3]: 618
- P3_MAL Rank (before) [4]: 3319
Sequence: NLWKLWTKPGGVRDDR

- P8_MAL Rank (after) [7]: 680
- P8_MAL Rank (before) [8]: 1087
Sequence: FDRFHIYFLHFLLFSR

- Population [10]: 0.00564%
Sequence: YAFTGHPHRYLVQRGV

- Rank (after) [5]: 141
- Rank (before) [6]: 2745
Sequence: PNLRTNVLNYLIRTKT

- Rank (after) [11]: 129
- Rank (before) [12]: 1172
Sequence: WFYERLVGLIMRDTKV

- Rank (after) [5]: 149
- Rank (before) [6]: 501
Sequence: WFWEKLRYALTAAANLSGW

- Population [9]: 0.0034%
Sequence: LFFWESLKQLLRSGGR

- P3_MAL Rank (after) [3]: 617
- P3_MAL Rank (before) [4]: 2023
Sequence: EWIREQMSPALKERLP

- P3_MAL Rank (after) [3]: 579
- P3_MAL Rank (before) [4]: 2665
Sequence: PSEIRKQTGSLPKAFA

- Rank (after) [11]: 114
- Rank (before) [12]: 1463
Sequence: YFLHFLLFSRPEPAYI

- Population [10]: 0.00488%
Sequence: LNLRTKVLNYLMRTKT

- P8_MAL Rank (after) [1]: 555
- P8_MAL Rank (before) [2]: 1247
Sequence: WFYERLGSLMLRDTNV

- P3_MAL Rank (after) (selection against MAL TIR, rank by count after grouping): 211
- P3_MAL Rank (before) (selection against MAL TIR, rank by count before grouping): 2053
Sequence: ESILNQLRRSSESIAK

- P3_MAL Rank (after) [7]: 763
- P3_MAL Rank (before) [8]: 2262
Sequence: LKVESWLQTLAKAGKL

- P3_MAL Rank (after) [3]: 631
- P3_MAL Rank (before) [4]: 3431
Sequence: NQAFWNRLWAKLKPLT

- Rank (after) [11]: 96
- Rank (before) [12]: 1250
Sequence: WFYERLLNLILRDTKV
